Target: T1, atypical protein kinase C (aPKC) (Drosophila melanogaster, UniProt A1Z9X0)
T1 sequence (A1Z9X0 1-606): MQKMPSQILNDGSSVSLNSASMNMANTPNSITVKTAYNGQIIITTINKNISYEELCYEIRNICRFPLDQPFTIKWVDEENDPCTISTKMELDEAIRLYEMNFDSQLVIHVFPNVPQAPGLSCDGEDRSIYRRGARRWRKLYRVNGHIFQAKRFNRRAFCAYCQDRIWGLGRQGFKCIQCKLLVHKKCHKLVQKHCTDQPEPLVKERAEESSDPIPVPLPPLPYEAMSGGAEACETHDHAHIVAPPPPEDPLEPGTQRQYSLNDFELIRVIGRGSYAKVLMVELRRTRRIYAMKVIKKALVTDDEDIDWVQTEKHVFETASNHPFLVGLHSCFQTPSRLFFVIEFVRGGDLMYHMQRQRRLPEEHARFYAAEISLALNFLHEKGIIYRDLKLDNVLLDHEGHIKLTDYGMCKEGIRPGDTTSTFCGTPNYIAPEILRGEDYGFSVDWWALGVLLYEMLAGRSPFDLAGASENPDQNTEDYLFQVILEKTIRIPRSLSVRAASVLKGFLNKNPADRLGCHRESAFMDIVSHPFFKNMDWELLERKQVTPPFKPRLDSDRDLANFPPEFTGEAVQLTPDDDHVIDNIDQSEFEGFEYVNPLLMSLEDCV
Assay: in vitro […] kinase assay with purified recombinant aPKC
Type: biochemical

SMILES: C[C@@H](N)[C@H]1CC[C@H](C(=O)Nc2ccncc2)CC1 [Y-27632]
- IC50: < 10 µM

From paper PMC2689075 (Current biology : CB, 2009)
